From ChEMBL document CHEMBL5500324, “The potential of marine-derived piperazine alkaloids: Sources, structures and bioactivities” (Eur J Med Chem, 2024)
In brackets after ≈: the same amount, converted by molar mass. Values belong to the molecule of their own block, whether it stands above or below them.

How the values were obtained:
Type in all cases: functional, cell-based
PC-3 = assay: Cytotoxicity against human PC-3 cells assessed as reduction in cell growth incubated for 48 hrs by CCK-8 assay; settings: PC-3, 48 h
U-937 = assay: Cytotoxicity against human U-937 cells assessed as reduction in cell growth incubated for 48 hrs by CCK-8 assay; settings: U-937, 48 h
L1210 = assay: Cytotoxicity against mouse L1210 assessed as cell growth inhibition
HeLa [1] = assay: Cytotoxicity against human HeLa cells assessed as cell growth inhibition
HCT-116 [2] = assay: Antiproliferative activity against human HCT-116 cells assessed as reduction in cell viability incubated for 24 hrs by MTT assay; settings: HCT-116, 24 h
QG-56 = assay: Cytotoxicity against human QG-56 cells assessed as reduction in cell growth incubated for 24 hrs by MTT assay; settings: QG-56, 24 h
DU-145 = assay: Cytotoxicity against human DU-145 cells assessed as cell growth inhibition measured after 48 hrs by MTT assay; settings: DU-145, 48 h
NCI-H460 = assay: Cytotoxicity against human NCI-H460 cells assessed as reduction in cell growth incubated for 48 hrs by SRB assay; settings: NCI-H460, 48 h
HCT-116 [3] = assay: Cytotoxicity against human HCT-116 cells assessed as reduction in cell viability incubated for 24 hrs by MTT assay; settings: HCT-116, 24 h
MCF7 [4] = assay: Cytotoxicity against human MCF7 cells assessed as reduction in cell growth incubated for 48 hrs by SRB assay; settings: MCF7, 48 h
HepG2 [5] = assay: Cytotoxicity against human HepG2 cells assessed as reduction in cell growth incubated for 48 hrs by SRB assay; settings: HepG2, 48 h
SF-268 = assay: Cytotoxicity against human SF-268 cells assessed as reduction in cell growth incubated for 48 hrs by SRB assay; settings: SF-268, 48 h
RKO = assay: Cytotoxicity against human RKO cells assessed as inhibition of cell growth measured after 48 hrs by MTT assay
HEK293 = assay: Cytotoxicity against HEK293 cells assessed as cell growth inhibition; settings: Homo sapiens
Bel-7402 = assay: Cytotoxicity against human Bel-7402 cells assessed as reduction in cell growth incubated for 72 hrs measured by MTT assay; settings: Bel-7402, 72 h
HepG2 [6] = assay: Antiproliferative activity against human HepG2 cells assessed as reduction in cell viability by CCK-8 assay
[7] = Cytotoxicity against human AML1 cells expressing FLT3-ITD mutant assessed as cell viability
HCT-116 [8] = assay: Antiproliferative activity against human HCT-116 cells assessed as reduction in cell growth
MCF7 [9] = assay: Antiproliferative activity against human MCF7 cells assessed as reduction in cell viability incubated for 72 hrs by MTT assay; settings: MCF7, 72 h
AGS = assay: Antiproliferative activity against human AGS cells assessed as reduction in cell viability measured for 48 hrs by Cell-Titer Glo assay
A549 [10] = assay: Antiproliferative activity against human A549 cells assessed as reduction in cell viability incubated for 72 hrs by CCK-8 assay; settings: A549, 72 h
HCT-116 [11] = assay: Cytotoxicity against human HCT-116 cells assessed as reduction in cell viability incubated for 48 hrs by MTT assay; settings: HCT-116, 48 h
A549 [12] = assay: Cytotoxicity against human A549 cells assessed as reduction in cell viability incubated for 48 hrs by MTT assay; settings: A549, 48 h
A549 [13] = assay: Cytotoxicity against human A549 cells assessed as reduction in cell viability incubated for 24 hrs by CCK-8 assay; settings: A549, 24 h
HeLa [14] = assay: Cytotoxicity against human HeLa cells assessed as reduction in cell viability incubated for 24 hrs by CCK-8 assay
HL-60 = assay: Cytotoxicity against human HL-60 cells assessed as cell growth inhibition by MTT assay
A549 [15] = assay: Cytotoxicity against human A549 cells assessed as reduction in cell growth by MTT assay
K562 = assay: Cytotoxicity against human K562 cells assessed as cell growth inhibition by MTT assay
NCI-H1975 = assay: Cytotoxicity against human NCI-H1975 cells assessed as cell growth inhibition by MTT assay
HCT-116 [16] = assay: Cytotoxicity against human HCT-116 cells assessed as reduction in cell growth by MTT assay

SMILES: COc1ccc2c3c([nH]c2c1)[C@H](C=C(C)C)N1C(=O)[C@@H]2CCCN2C(=O)[C@]1(O)[C@H]3O
IC50 (PC-3): 6.56 µM
IC50 (U-937): 1.82 µM

SMILES: CC1(C)C=Cc2c(ccc3c2N(O)C(=O)[C@@]32C[C@@]34NC(=O)[C@]5(CCCN5C3=O)C[C@H]4C2(C)C)O1
IC50 (L1210): 29 µg/mL (≈ 62.6 µM)
IC50 (HeLa [1]): 27 µg/mL (≈ 58.2 µM)

IC50 (HCT-116 [2]): 0.455 µM
SMILES: COC1=C(C)C(=O)C2=C(C1=O)[C@H](CO)N1[C@@H](C#N)[C@@H]3[C@@H](O)c4c(O)c(C)c(OC)c(O)c4[C@H]([C@@H]1C2)N3C
IC50 (QG-56): 0.618 µM
IC50 (DU-145): 0.448 µM

SMILES: C=c1c(=O)n2c(cc3ccccc32)c(=O)n1C
IC50 (NCI-H460): 12.3 µM
IC50 (HCT-116 [3]): 10.3 µM
IC50 (MCF7 [4]): 4.67 µM
IC50 (HepG2 [5]): 2.29 µM
IC50 (SF-268): 3.3 µM
IC50 (RKO): 33.6 µM
IC50 (HEK293): 30.1 µM

SMILES: C/C=C(/C)C(=O)OC[C@H]1C2=C(C[C@H]3[C@H]4C5=C(C[C@@H]([C@H](C#N)N13)N4C)C(=O)C(C)=C(OC)C5=O)C(=O)C(C)=C(OC)C2=O [RENIERAMYCIN M]
IC50 (QG-56): 0.00076 µM
IC50 (DU-145): 0.019 µM

SMILES: C[C@H]1CCN2C[C@]34CC5(C(=O)Nc6c5ccc5c6OC=CC(C)(C)O5)C(C)(C)[C@@H]3C[C@]12C(=O)N4C (stereo partly specified)
IC50 (Bel-7402): 1.9 µM

SMILES: COc1ccc2c3c([nH]c2c1)[C@H](C=C(C)C)N1C(=O)[C@@H]2CCCN2C(=O)[C@]1(O)C3
IC50 (U-937): 18.2 µM

SMILES: CS[C@@]12CC3=CC=C[C@H](OC(C)=O)[C@H]3N1C(=O)[C@]1(SC)CC3=CC=C[C@H](OC(C)=O)[C@H]3N1C2=O
IC50 (HepG2 [6]): 42 µg/mL (≈ 83.6 µM)

SMILES: CC1(C)C=Cc2c(ccc3c2N[C@@]24N5C(=O)[C@]6(O)CCCN6C(=O)[C@]5(O)C[C@@]32O[C@H](CO)C4(C)C)O1
IC50 [7]: 10 µM

IC50 (HCT-116 [8]): 52 µM
IC50 (MCF7 [9]): 31 µM
IC50 (AGS): 29 µM
IC50 (A549 [10]): 23 µM
SMILES: CC(=O)O[C@H]1C=COC=C2C[C@@]34SS[C@]5(Cc6ccccc6N5C3=O)C(=O)N4[C@@H]21

SMILES: COc1ccc(C[C@H]2NC(=O)[C@@H](CC(C)C)NC2=O)cc1O
IC50 (HCT-116 [11]): 75.4 µg/mL (≈ 246 µM)
IC50 (A549 [12]): 35.4 µg/mL (≈ 116 µM)

SMILES: CC(C)C[C@H]1NC(=O)[C@@H](Cc2ccc3c(c2)OCO3)NC1=O
IC50 (HCT-116 [11]): 45.4 µg/mL (≈ 149 µM)
IC50 (A549 [12]): 28.4 µg/mL (≈ 93.3 µM)

SMILES: COc1ccc2c3c(n(CC=C(C)C)c2c1)[C@H](C=C(C)C)N1C(=O)[C@@H]2CCCN2C(=O)[C@@]1(O)[C@H]3OC
IC50 (PC-3): 98.7 µM
IC50 (U-937): 25.3 µM

SMILES: COc1ccc2c3c(n(CC=C(C)C)c2c1)[C@H](C=C(C)C)N1C(=O)[C@@H]2CCCN2C(=O)[C@]1(O)[C@H]3O
IC50 (PC-3): 43.4 µM
IC50 (U-937): 14.1 µM

SMILES: CC[C@H](C)[C@]1(OC)NC(=O)[C@@H](Cc2ccccc2)N2C(=O)C3=C(NC21)OC=CC=C3 (stereo partly specified)
IC50 (A549 [13]): 100 µM
IC50 (HeLa [14]): 190 µM

SMILES: COc1ccc2c3c([nH]c2c1)[C@H](C=C(C)C)N1C(=O)[C@@H]2CCCN2C(=O)[C@@]1(O)[C@H]3O
IC50 (U-937): 92.4 µM

SMILES: C[C@H]1CCN2C[C@]34CC5(C(=O)Nc6c5cc(O)c5c6OC=CC(C)(C)O5)C(C)(C)[C@@H]3C[C@]12C(=O)N4C (stereo partly specified)
IC50 (Bel-7402): 3.3 µM

SMILES: CC[C@H](C)[C@]1(O)NC(=O)[C@@H](Cc2ccccc2)N2C(=O)C3=C(NC21)OC=CC=C3 (stereo partly specified)
IC50 (A549 [13]): 61 µM
IC50 (HeLa [14]): 114 µM

SMILES: CN1C(=O)[C@]2(S)CC3=CC=C[C@H](O)[C@H]3N2C(=O)[C@]1(S)CO
IC50 (HCT-116 [3]): 0.43 µM
IC50 (RKO): 0.41 µM
IC50 (HEK293): 1.26 µM

SMILES: CN1C(=O)[C@]23SSS[C@]1(C)C(=O)N2[C@@H]1Nc2ccccc2C1(C12c4ccccc4N[C@@H]1N1C(=O)[C@@]4(CO)SSS[C@]1(C(=O)N4C)[C@H]2O)[C@@H]3O (stereo partly specified)
IC50 (HL-60): 1.9 µM
IC50 (A549 [15]): 0.4 µM
IC50 (K562): 0.4 µM
IC50 (NCI-H1975): 0.2 µM
IC50 (HCT-116 [16]): 0.4 µM
